The source of these data is paper PMC5349529, “Antagonizing effects of membrane-acting androgens on the eicosanoid receptor OXER1 in prostate cancer” (Scientific Reports, 2017).

pIC50: −log10 of the molar value.

The assay has as its target oxoeicosanoid receptor 1 (OXER1) (Homo sapiens, UniProt Q8TDS5). Description: inhibition of forskolin-stimulated cAMP in CHO-K1 cells stably expressing human OXER1 (agonist); also displaces [3H]testosterone from DU-145 membranes. The assay is classed as cell-based.

Usually pIC50 stands for the negative decadic logarithm of the IC50, by convention in mol/L. Higher therefore signals a low IC50.

Chain of oxoeicosanoid receptor 1 (OXER1) (Q8TDS5 whole entry): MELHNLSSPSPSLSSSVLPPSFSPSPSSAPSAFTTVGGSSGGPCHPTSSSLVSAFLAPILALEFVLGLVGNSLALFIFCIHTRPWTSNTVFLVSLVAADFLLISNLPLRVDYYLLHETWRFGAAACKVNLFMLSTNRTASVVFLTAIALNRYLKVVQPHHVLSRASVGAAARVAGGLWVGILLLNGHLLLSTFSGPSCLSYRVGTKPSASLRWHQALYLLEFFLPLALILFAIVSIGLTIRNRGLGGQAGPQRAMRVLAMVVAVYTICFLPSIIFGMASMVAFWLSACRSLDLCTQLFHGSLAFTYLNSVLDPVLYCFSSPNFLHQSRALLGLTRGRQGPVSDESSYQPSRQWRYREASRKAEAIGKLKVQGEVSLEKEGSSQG

As to `CCCCC/C=C\C/C=C\C/C=C\C=C\C(=O)CCCC(=O)O` [5-oxoETE, 5-oxo-6E,8Z,11Z,14Z-eicosatetraenoic acid], the pIC50 is roughly 8.70.
